Measurements as given in EP1266659A1, “Pyridoxal in combination with serotonin re-uptake inhibitor for the treatment of hot flushes” (Pantarhei Bioscience B.V., priority 2001, dated 2002).
Counter-ions that a name gives are not always drawn.

Test system: peri-menopausal women experiencing at least 40-50 hot flushes per week
Description: A clinical study is conducted with 12 peri-menopausal women experiencing at least 40-50 hot flushes per week.
The study is designed as a so called double blind, cross-over study. During the study the medication is orally administered once a day. The visual aspects of the medication used is always the same, i.e. these aspects offer no clues as to the nature of the medication. The volunteers are asked to record the number of hot flushes they experience in a dairy (at least 1 entry per day).
During an initial period of 56 days (days 1-56), all 12 participants receive the same medication, i.e. 20 mg Fluoxetine HCl. Subsequently, the twelve women are randomly divided into two groups, i.e. group A with six women and group B with six women.

CNCCC(Oc1ccc(C(F)(F)F)cc1)c1ccccc1 (stereo not drawn) [Fluoxetine HCl]
number of hot flushes experienced per day (all 12 participants, 20 mg Fluoxetine HCl orally once a day, days 1-56): decreases substantially over time
number of hot flushes (group A, 5mg Fluoxetine HCl + placebo orally once a day, days 169-281 (after the combination with vitamin B6)): increases again over time
daily number of hot flushes experienced (group B, 5mg Fluoxetine HCl + placebo orally once a day, days 57-168 (after 20 mg Fluoxetine HCl)): increases over time
